Patent US7420056B2, “Substituted bicyclic imidazo-3-ylamine compounds” (Gruenenthal GmbH, priority 2004, dated 2008)
Where a name gives a salt, the structure may show the parent alone.

target: mGluR5 receptor (Sus scrofa, UniProt I3LUI7); assay: Affinity for the mGluR5 receptor: inhibition of 3[H]-MPEP binding in pig brain homogenate; conditions: 10 μM compound, 5 nM 3[H]-MPEP, read-out: mGluR5 receptor inhibition of ^3[H]-MPEP binding [10 μM] in % at a concentration of the example compounds of 10 μM
Method: 1. Method for Determining Affinity for the mGluR5 Receptor
Pig brain homogenate is produced by homogenisation (Polytron Pt 3000, Kinematica AG, 10,000 revolutions per minute for 90 seconds) of pig brain hemispheres without medulla, cerebellum and pons in a buffer of pH 8.0 (30 mM Hepes, Sigma, order number H3375+1 tablet Complete Roche Diagnostics, order number 1836145 made up to 100 ml) in a ratio of 1:20 (brain weight/volume) and differential centrifugation at 900×g and 40,000×g. 450 μg of protein from brain homogenate is incubated in each case in 250 μl incubation batches in 96-well microtitre plates with 5 nM 3[H]-MPEP (Tocris, order number R1212) (MPEP=2-methyl-6-[…]) and the compounds to be investigated (10 μM in the test) in the buffer (as above) at room temperature for 60 minutes.
The batches are then filtered with the assistance of a Brandel Cell Harvester (Brandel, Grade Robotic 9600) on Unifilter plates with glass filter mats (Perkin Elmer, order number 6005177) and then washed 3 times with buffer (as above) using 250 μl per sample. The filter plates are then dried for 60 minutes at 55° C. Then 30 μl of Ultima Gold™ scintillating material (Packard BioScience, order number 6013159) is added per well and after 3 hours the samples are measured using the β counter (Microbeta, Perkin Elmer). Nonspecific binding is determined by the addition of 10 μM MPEP (Tocris, order number 1212).

Chain of mGluR5 receptor (I3LUI7 19-1212): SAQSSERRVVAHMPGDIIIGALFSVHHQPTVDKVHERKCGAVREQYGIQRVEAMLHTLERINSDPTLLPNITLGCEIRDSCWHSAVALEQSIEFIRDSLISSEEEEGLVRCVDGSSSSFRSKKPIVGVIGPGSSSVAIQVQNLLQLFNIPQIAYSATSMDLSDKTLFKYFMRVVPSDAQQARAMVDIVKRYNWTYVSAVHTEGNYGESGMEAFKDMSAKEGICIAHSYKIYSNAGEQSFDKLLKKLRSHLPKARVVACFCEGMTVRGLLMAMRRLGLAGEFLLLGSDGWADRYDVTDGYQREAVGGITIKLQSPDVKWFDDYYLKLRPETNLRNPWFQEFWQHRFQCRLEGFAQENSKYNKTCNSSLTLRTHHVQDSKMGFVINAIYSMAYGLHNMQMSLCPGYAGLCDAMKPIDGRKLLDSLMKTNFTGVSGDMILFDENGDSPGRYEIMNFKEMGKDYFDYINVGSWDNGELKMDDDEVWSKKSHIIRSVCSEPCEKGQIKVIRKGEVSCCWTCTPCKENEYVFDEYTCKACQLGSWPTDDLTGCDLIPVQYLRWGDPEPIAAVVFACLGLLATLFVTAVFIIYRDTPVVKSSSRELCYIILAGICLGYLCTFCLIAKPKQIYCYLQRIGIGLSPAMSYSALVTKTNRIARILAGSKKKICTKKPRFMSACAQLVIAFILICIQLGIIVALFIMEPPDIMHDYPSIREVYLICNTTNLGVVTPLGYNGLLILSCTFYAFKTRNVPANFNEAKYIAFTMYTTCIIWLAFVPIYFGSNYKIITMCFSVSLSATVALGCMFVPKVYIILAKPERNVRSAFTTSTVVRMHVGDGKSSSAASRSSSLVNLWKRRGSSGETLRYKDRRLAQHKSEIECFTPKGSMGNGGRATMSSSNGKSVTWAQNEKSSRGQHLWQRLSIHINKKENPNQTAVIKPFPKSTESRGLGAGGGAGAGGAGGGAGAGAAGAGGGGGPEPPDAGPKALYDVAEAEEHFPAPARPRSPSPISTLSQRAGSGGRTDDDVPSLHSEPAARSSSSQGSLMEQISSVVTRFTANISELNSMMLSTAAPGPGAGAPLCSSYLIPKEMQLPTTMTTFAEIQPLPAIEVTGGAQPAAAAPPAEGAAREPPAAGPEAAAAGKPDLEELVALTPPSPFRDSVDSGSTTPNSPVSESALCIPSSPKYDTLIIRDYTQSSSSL

SMILES | inhibition at 10 µM
Clc1ccc(CNc2c(-c3ccc(C#Cc4ccccc4)s3)nc3ccccn23)cc1 [Example 204, N-(4-chlorobenzyl)-2-(5-(phenylethynyl)thiophen-2-yl)imidazo[1,2-a]pyridin-3-amine] | 30%
CC(C)c1ccn2c(NCc3cccc(C(F)(F)F)c3)c(-c3ccc(C#Cc4ccccc4)s3)nc2c1 [Example 54, [7-isopropyl-2-(5-phenylethynyl-thiophen-2-yl)-imidazo[1,2-a]pyridin-3-yl]-(3-trifluoromethyl-benzyl)-amine] | 69%
C(#Cc1ccc(-c2nc3cnccn3c2NC2CCCC2)o1)c1ccccc1 [Example 216, N-cyclopentyl-2-(5-(phenylethynyl)furan-2-yl)imidazo[1,2-a]pyrazin-3-amine] | 49%
C(#Cc1ccccn1)c1ccc(-c2nc3cnccn3c2NC2CCCC2)cc1 [Example 240, N-cyclopentyl-2-(4-(pyridin-2-ylethynyl)phenyl)imidazo[1,2-a]pyrazin-3-amine] | 95%
Cc1cccc(C#Cc2cccc(-c3nc4ccc(Cl)cn4c3NC3CCCC3)c2)n1 [Example 319, 6-chloro-N-cyclopentyl-2-(3-((6-methylpyridin-2-yl)ethynyl)phenyl)imidazo[1,2-a]pyridin-3-amine] | 81%
C(#Cc1ccc(-c2nc3ccccn3c2Nc2ccco2)o1)c1ccccc1 [Example 224, N-(furan-2-yl)-2-(5-(phenylethynyl)furan-2-yl)imidazo[1,2-a]pyridin-3-amine] | 69%
Cc1cc(C)n2c(NCc3ccc(Cl)cc3)c(-c3cc(C#Cc4ccccc4)cs3)nc2c1 [Example 230, N-(4-chlorobenzyl)-5,7-dimethyl-2-(4-(phenylethynyl)thiophen-2-yl)imidazo[1,2-a]pyridin-3-amine] | 60%
COc1cccc(CCNc2c(-c3cc(C#Cc4ccccc4)cs3)nc3cnccn23)c1 [Example 202, N-(3-methoxyphenethyl)-2-(4-(phenylethynyl)thiophen-2-yl)imidazo[1,2-a]pyrazin-3-amine] | 70%
Cc1nc(C#Cc2ccccc2)ccc1-c1nc2ccccn2c1Nc1ccc(F)cc1 [Example 266, N-(4-fluorophenyl)-2-(2-methyl-6-(phenylethynyl)pyridin-3-yl)imidazo[1,2-a]pyridin-3-amine] | 63%
COc1ccccc1CNc1c(-c2ccc(C#Cc3ccccc3)s2)nc2cc(C)ccn12 [Example 37, (2-methoxy-benzyl)-[7-methyl-2-(5-phenylethynyl-thiophen-2-yl)-imidazo[1,2-a]pyridin-3-yl]-amine] | 85%
CC(C)(C)Nc1c(-c2ccc(C#Cc3ccccn3)cc2)nc2ccc(Cl)cn12 [Example 314, N-tert-butyl-6-chloro-2-(4-(pyridin-2-ylethynyl)phenyl)imidazo[1,2-a]pyridin-3-amine] | 79%
Cc1cc(C)n2c(NC3CCCCC3)c(-c3cccc(C#Cc4ccccn4)c3)nc2n1 [Example 292, N-cyclohexyl-5,7-dimethyl-2-(3-(pyridin-2-ylethynyl)phenyl)imidazo[1,2-a]pyrimidin-3-amine] | 88%
COc1cccc(CCNc2c(-c3cc(C#Cc4ccccc4)cs3)nc3nc(C)ccn23)c1 [Example 217, N-(3-methoxyphenethyl)-7-methyl-2-(4-(phenylethynyl)thiophen-2-yl)imidazo[1,2-a]pyrimidin-3-amine] | 62%
Cc1cccc(C#Cc2cccc(-c3nc4cnccn4c3Nc3ccc(F)cc3)c2)n1 [Example 252, N-(4-fluorophenyl)-2-(3-((6-methylpyridin-2-yl)ethynyl)phenyl)imidazo[1,2-a]pyrazin-3-amine] | 86%
Cc1ccc2nc(-c3cccc(C#Cc4cccc(C)n4)c3)c(NC3CCCCC3)n2c1 [Example 273, N-cyclohexyl-6-methyl-2-(3-((6-methylpyridin-2-yl)ethynyl)phenyl)imidazo[1,2-a]pyridin-3-amine] | 84%

The next lines start with the values.

inhibition at 10 µM | SMILES
96% | COc1ccc(CNc2c(-c3ccc(C#Cc4ccccc4)s3)nc3cnccn23)cc1 [Example 17, (4-methoxy-benzyl)-[2-(5-phenylethynyl-thiophen-2-yl)-imidazo[1,2-a]pyrazin-3-yl]-amine]
81% | COc1cccc(CNc2c(-c3ccc(C#Cc4ccccc4)s3)nc3ccccn23)c1 [Example 25, (3-methoxy-benzyl)-[2-(5-phenylethynyl-thiophen-2-yl)-imidazo[1,2-a]pyridin-3-yl]-amine]

same assay, conditions: 3[H]-MPEP binding

SMILES | IC50
CC(C)(C)Nc1c(-c2ccc(C#Cc3nccs3)s2)nc2ccccn12 [Example 332, tert-butyl-[2-(5-thiazol-2-ylethynyl-thiophen-2-yl)-imidazo[1,2-a]pyridin-3-yl]-amine hydrochloride] | 0.014 µM
CC(C)(C)Nc1c(-c2ccc(C#Cc3cccc(CO)c3)s2)nc2ccccn12 [Example 341, {3-[5-(3-tert-butylamino-imidazo[1,2-a]pyridin-2-yl)-thiophen-2-ylethynyl]-phenyl}-methanol hydrochloride] | 0.24 µM
CC(C)(C)Nc1c(-c2ccc(C#Cc3cncc(C#N)c3)s2)nc2cnccn12 [Example 172, 5-((5-(3-(tert-butylamino)imidazo[1,2-a]pyrazin-2-yl)thiophen-2-yl)ethynyl)nicotinonitrile hydrochloride] | 0.036 µM
Cc1cccnc1C#Cc1ccc(-c2nc3ccccn3c2NC(C)(C)C)s1 [Example 351, N-tert-butyl-2-(5-((3-methylpyridin-2-yl)ethynyl)thiophen-2-yl)imidazo[1,2-a]pyridin-3-amine hydrochloride] | 0.23 µM
CC(C)(C)Nc1c(-c2ccc(C#Cc3ccccn3)o2)nc2cnccn12 [Example 119, N-tert-butyl-2-(5-(pyridin-2-ylethynyl)furan-2-yl)imidazo[1,2-a]pyrazin-3-amine] | 0.036 µM

Further lines, results first:

IC50 | SMILES
3.84 µM | CC(=O)Nc1c(-c2ccc(C#Cc3ccccc3)s2)nc2cnccn12 [Example 67, N-[2-(5-phenylethynyl-thiophen-2-yl)-imidazo[1,2-a]pyrazin-3-yl]-acetamide]
0.58 µM | CC(C)(C)Nc1c(-c2ccc(C#Cc3cccc(C(F)(F)F)c3)s2)nc2cnccn12 [Example 180, N-tert-butyl-2-(5-((3-(trifluoromethyl)phenyl)ethynyl)thiophen-2-yl)imidazo[1,2-a]pyrazin-3-amine hydrochloride]
8.85 µM | Cc1cccc2nc(-c3ccc(C#Cc4ccccc4)s3)c(NC(C)(C)C)n12 [Example 102, N-tert-butyl-5-methyl-2-(5-(phenylethynyl)thiophen-2-yl)imidazo[1,2-a]pyridin-3-amine]
0.54 µM | C(#Cc1ccc(-c2nc3cnccn3c2N2CCCC2)s1)c1ccccc1 [Example 99, 2-(5-(phenylethynyl)thiophen-2-yl)-3-(pyrrolidin-1-yl)imidazo[1,2-a]pyrazine hydrochloride]
0.024 µM | CC(C)(C)Nc1c(-c2ccc(C#Cc3cccc(C=O)c3)s2)nc2cnccn12 [Example 178, 3-((5-(3-(tert-butylamino)imidazo[1,2-a]pyrazin-2-yl)thiophen-2-yl)ethynyl)benzaldehyde]
0.027 µM | CC(C)(C)Nc1c(-c2ccc(C#Cc3ccsc3)s2)nc2cnccn12 [Example 156, N-tert-butyl-2-(5-(thiophen-3-ylethynyl)thiophen-2-yl)imidazo[1,2-a]pyrazin-3-amine hydrochloride]
0.092 µM | CC(C)(C)Nc1c(-c2ccc(C#Cc3cccc(F)c3)s2)nc2cnccn12 [Example 104, N-tert-butyl-2-(5-((3-fluorophenyl)ethynyl)thiophen-2-yl)imidazo[1,2-a]pyrazin-3-amine hydrochloride]
0.0037 µM | CC(C)(C)Nc1c(-c2ccc(C#Cc3ccncc3)s2)nc2cnccn12 [Example 76, tert-butyl-[2-(5-pyridin-4-ylethynyl-thiophen-2-yl)-imidazo[1,2-a]pyrazin-3-yl]-amine]
6.38 µM | Cc1nc(C#Cc2ccccc2)ccc1-c1nc2cnccn2c1NC(C)(C)C [Example 118, N-tert-butyl-2-(2-methyl-6-(phenylethynyl)pyridin-3-yl)imidazo[1,2-a]pyrazin-3-amine]
0.25 µM | CN(c1c(-c2ccc(C#Cc3ccccc3)s2)nc2cnccn12)C(C)(C)CC(C)(C)C [Example 98, N-methyl-2-(5-(phenylethynyl)thiophen-2-yl)-N-(2,4,4-trimethylpentan-2-yl)imidazo[1,2-a]pyrazin-3-amine hydrochloride]
5.34 µM | CCCCCNc1c(-c2ccc(C#Cc3ccccc3)s2)nc2cnccn12 [Example 72, pentyl-[2-(5-phenylethynyl-thiophen-2-yl)-imidazo[1,2-a]pyrazin-3-yl]-amine]
0.094 µM | CNc1cccc(C#Cc2ccc(-c3nc4cnccn4c3NC(C)(C)C)s2)c1 [Example 160, N-tert-butyl-2-(5-((3-(methylamino)phenyl)ethynyl)thiophen-2-yl)imidazo[1,2-a]pyrazin-3-amine hydrochloride]
